One assay has as its target EZH1 (Homo sapiens, UniProt Q92800). As to the kind of experiment: AlphaLISA enzyme activity inhibition, EZH1. In kind it is biochemical. The procedure, abridged: (§1)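 EZH1 or EZH2 was mixed with compound at 5 nM or 10 nM final in 20 mM Tris pH 8.0, 0.1% BSA, 0.5 mM DTT, then histone H3 peptide and SAM were added. After 2 h reaction, AlphaLISA acceptor and donor beads detected methylation; inhibition rate was calculated against DMSO control.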
For orientation: Bead proximity is the source of the signal in Alpha formats.

For a further assay, the target named is EZH2 (Homo sapiens, UniProt Q15910). As to the kind of experiment: AlphaLISA enzyme activity inhibition, EZH2. In kind it is biochemical. The gist of the method:
as §1

The next assay concerns Lovo cells. As to the kind of experiment: Cancer cell proliferation inhibition (Cell Counting Kit-8), colorectal cancer cell line. The class given is cell-based. The conditions noted are these: 1000 nM, cultured seven to 11 days; for inhibition at 1 µM: Homo sapiens, LoVo, 264 h, read-out: % inhibition rate LoVo. The procedure, abridged:
(§2)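 Single-concentration growth test: compound at 1000 nM was applied to cells seeded at 100 to 1,000 per well and cultured seven to 11 days. Proliferation was then quantified with Cell Counting Kit-8, and percent inhibition was taken relative to control wells.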

A further assay concerns G401 cells. As to the kind of experiment: Cancer cell proliferation inhibition (Cell Counting Kit-8), rhabdoid tumor cell line. In kind it is cell-based. The settings on record: 1000 nM, cultured seven to 11 days; for inhibition at 1 µM: Homo sapiens, G-401, 264 h, read-out: % inhibition rate G401; for % inhibition rate G401: 1 µM. The gist of the method:
(§3)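 Cells grown in RPMI1640, McCoy's 5a, L-15 or DMEM with 10% FBS, seeded at 100 to 1,000 cells/well and treated with test substance at 1000 nM for 7 to 11 days. Viability read by CCK-8; % inhibition = {1−(test/control)} × 100.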
(In general: Tetrazolium assays rely on reduction of a dye to a coloured formazan, in cell work by metabolically active cells.)

The next assay relates to MKN-45 cells. As to the kind of experiment: Cancer cell proliferation inhibition (Cell Counting Kit-8), gastric cancer cell line. In kind it is cell-based. The conditions noted are these: 1000 nM, cultured seven to 11 days; for inhibition at 1 µM: Homo sapiens, MKN-45, 264 h, read-out: % inhibition rate MKN -45. The procedure, abridged: as §3
Another assay concerns SW-13 cells. As to the kind of experiment: Cancer cell proliferation inhibition (Cell Counting Kit-8), adrenal cancer cell line. The class given is cell-based. The settings on record: 1000 nM, cultured seven to 11 days; for inhibition at 1 µM: Homo sapiens, SW13, 264 h, read-out: % inhibition rate SW-13. The procedure, abridged:
as §2

The next assay deals with MIA-PaCa-2 cells. As to the kind of experiment: Cancer cell proliferation inhibition (Cell Counting Kit-8), pancreatic cancer cell line. The conditions noted are these: 1000 nM, cultured seven to 11 days; for inhibition at 1 µM: Homo sapiens, MIA PaCa-2, 264 h, read-out: % inhibition rate MIA-Paca2. The class given is cell-based. The gist of the method: as §2
A further assay relates to NCI-H1299 cells. As to the kind of experiment: Cancer cell proliferation inhibition (Cell Counting Kit-8), lung cancer cell line. The conditions noted are these: 1000 nM, cultured seven to 11 days; for inhibition at 1 µM: Homo sapiens, NCI-H1299, 264 h, read-out: % inhibition rate NCI-H129 9. The class given is cell-based. The gist of the method:
as §2

The record followed here is patent EP4740948A1 (Dong Wha Pharm. Co., Ltd., priority 2023, dated 2025).

Usually inhibition stands for the drop in the measured response relative to a control, in per cent.

EZH2, sequence (Q15910 whole entry, species assumed): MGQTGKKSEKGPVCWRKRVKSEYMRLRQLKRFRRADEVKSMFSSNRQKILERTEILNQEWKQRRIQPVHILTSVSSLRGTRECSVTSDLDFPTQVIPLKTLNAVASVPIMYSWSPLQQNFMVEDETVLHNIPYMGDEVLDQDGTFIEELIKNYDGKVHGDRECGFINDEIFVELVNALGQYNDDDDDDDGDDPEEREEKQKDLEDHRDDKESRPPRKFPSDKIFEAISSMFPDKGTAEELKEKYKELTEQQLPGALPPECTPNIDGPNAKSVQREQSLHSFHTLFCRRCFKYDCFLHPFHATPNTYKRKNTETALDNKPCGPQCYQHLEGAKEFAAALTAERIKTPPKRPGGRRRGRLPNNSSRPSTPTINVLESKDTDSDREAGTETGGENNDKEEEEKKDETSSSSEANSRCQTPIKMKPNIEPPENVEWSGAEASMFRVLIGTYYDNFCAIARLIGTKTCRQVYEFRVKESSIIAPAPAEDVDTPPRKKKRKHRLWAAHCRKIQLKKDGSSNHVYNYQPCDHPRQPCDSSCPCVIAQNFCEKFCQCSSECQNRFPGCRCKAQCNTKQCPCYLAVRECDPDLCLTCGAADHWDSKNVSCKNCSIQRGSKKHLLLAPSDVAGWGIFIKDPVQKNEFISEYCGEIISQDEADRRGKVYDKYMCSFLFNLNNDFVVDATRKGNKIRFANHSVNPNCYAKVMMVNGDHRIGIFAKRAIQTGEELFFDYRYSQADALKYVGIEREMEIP
EZH2, sequence (O75530 whole entry partner, species assumed): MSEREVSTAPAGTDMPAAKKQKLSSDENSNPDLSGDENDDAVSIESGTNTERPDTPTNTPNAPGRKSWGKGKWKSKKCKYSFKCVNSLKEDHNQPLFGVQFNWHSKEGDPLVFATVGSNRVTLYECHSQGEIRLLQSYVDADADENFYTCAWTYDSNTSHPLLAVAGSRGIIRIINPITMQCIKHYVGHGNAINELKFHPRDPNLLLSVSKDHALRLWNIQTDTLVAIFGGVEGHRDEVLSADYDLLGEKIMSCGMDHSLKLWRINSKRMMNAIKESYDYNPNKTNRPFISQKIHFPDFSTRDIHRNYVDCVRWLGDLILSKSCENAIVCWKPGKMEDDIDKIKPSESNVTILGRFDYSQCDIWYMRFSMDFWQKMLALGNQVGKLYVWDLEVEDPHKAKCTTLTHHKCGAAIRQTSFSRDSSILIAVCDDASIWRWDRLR
EZH2, sequence (Q15022 whole entry partner, species assumed): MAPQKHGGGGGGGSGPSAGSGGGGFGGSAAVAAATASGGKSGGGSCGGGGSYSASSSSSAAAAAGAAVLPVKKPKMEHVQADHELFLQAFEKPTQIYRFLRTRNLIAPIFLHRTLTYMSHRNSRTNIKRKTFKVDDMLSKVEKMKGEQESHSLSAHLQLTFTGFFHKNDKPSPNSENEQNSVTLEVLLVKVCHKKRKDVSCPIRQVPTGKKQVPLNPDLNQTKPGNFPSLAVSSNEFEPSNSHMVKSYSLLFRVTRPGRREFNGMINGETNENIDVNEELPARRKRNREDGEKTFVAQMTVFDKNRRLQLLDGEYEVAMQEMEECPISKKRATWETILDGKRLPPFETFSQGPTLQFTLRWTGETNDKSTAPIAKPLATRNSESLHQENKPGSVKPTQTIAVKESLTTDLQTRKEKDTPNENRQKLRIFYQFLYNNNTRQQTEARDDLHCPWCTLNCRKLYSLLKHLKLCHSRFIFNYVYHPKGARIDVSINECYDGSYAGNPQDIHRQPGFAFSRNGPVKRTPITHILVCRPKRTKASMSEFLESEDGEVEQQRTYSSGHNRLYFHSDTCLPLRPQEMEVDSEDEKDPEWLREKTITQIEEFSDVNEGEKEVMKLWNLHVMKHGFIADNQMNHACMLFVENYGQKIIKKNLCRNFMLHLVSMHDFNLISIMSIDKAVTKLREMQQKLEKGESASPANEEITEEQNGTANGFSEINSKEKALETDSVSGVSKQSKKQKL
EZH1, sequence (Q92800 whole entry, species assumed): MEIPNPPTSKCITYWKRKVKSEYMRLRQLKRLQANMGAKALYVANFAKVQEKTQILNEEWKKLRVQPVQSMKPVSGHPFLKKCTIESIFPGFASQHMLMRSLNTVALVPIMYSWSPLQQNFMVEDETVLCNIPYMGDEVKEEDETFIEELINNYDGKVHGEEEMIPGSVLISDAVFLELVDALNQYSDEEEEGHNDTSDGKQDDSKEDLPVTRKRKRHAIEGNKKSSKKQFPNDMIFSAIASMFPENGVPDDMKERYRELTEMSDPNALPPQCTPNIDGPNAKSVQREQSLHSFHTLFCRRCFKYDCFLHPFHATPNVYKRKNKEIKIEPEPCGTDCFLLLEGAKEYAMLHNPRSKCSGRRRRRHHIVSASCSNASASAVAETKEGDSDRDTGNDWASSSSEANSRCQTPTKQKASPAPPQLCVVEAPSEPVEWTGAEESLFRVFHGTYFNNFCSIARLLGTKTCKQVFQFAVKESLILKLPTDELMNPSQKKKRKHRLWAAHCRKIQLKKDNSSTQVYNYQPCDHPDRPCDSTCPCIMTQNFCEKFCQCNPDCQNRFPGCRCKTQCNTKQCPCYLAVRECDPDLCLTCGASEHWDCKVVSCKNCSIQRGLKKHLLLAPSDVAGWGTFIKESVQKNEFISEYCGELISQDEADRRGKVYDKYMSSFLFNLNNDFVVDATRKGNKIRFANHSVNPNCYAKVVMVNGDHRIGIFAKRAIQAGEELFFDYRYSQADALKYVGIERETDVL
EZH1, sequence (O75530 whole entry partner, species assumed): as the sequence (O75530 whole entry partner, species assumed) above
EZH1, sequence (Q15022 whole entry partner, species assumed): as the sequence (Q15022 whole entry partner, species assumed) above

For `CSc1cc(C)[nH]c(=O)c1CNC(=O)c1cc(-c2ccc(N3C[C@@H](C)O[C@@H](C)C3)nc2)c2c(c1C)OC(C)([C@H]1CC[C@H](N(C)CC(F)(F)F)CC1)O2` (stereo partly drawn) [Compound 20, 7-(6-((2S,6R)-2,6-dimethylmorpholino)pyridin-3-yl)-2,4-dimethyl-2-(trans-4-(methyl(2,2,2-trifluoroethyl)amino)cyclohexyl)-N-((6-methyl-4-(methylthio)-2-oxo-1,2-dihydropyridin-3-yl)methyl)benzo[d][1,3]dioxole-5-carboxamide], the figures for the inhibition at 0.005 µM against EZH1 (5nM test substance) and against EZH2 (5nM test substance) were 34.3% and 26.1%, respectively. The inhibition at 1 µM in the assay with Lovo cells is no less than 70%; in the assay with G401 cells it was 30 to 70%; with MKN-45 cells it was 30 to 70%; with SW-13 cells, no more than 30%; with MIA-PaCa-2 cells, no more than 30%; in the assay with NCI-H1299 cells, no more than 30%.

Regarding `CSc1cc(C)[nH]c(=O)c1CNC(=O)c1cc(-c2ccc(N3CCCCC3)cc2)c2c(c1C)OC(C)(C1CCN(CC(F)(F)F)CC1)O2` (stereo not shown) [Compound 90, 2,4-dimethyl-N-((6-methyl-4-(methylthio)-2-oxo-1,2-dihydropyridin-3-yl)methyl)-7-(4-(piperidin-1-yl)phenyl)-2-(1-(2,2,2-trifluoroethyl)piperidin-4-yl)benzo[d][1,3]dioxole-5-carboxamide], the inhibition at 0.005 µM on EZH1 (5nM test substance) is 20.2%; at EZH2 (5nM test substance), 60.1%. Also, the inhibition at 0.01 µM against EZH1 (10nM test substance) came out at 16.2%; against EZH2 (10nM test substance), 82.3%. Also, the inhibition at 1 µM is no less than 70% with Lovo cells; 30 to 70% in the assay on G401 cells; no more than 30% in the assay on MKN-45 cells; no more than 30% in the assay on SW-13 cells; no more than 30% in the assay with MIA-PaCa-2 cells; no more than 30% with NCI-H1299 cells.

As for `CCN1CCC(C2(C)Oc3c(-c4ccc(N(C)CC)nc4)cc(C(=O)NCc4c(SC)cc(C)[nH]c4=O)c(C)c3O2)CC1` (single isomer, unassigned) [Compound 89, 7-(6-(ethyl(methyl)amino)pyridin-3-yl)-2-(1-ethylpiperidin-4-yl)-2,4-dimethyl-N-((6-methyl-4-(methylthio)-2-oxo-1,2-dihydropyridin-3-yl)methyl)benzo[d][1,3]dioxole-5-carboxamide], the values for the inhibition at 0.005 µM against EZH1 (5nM test substance) and on EZH2 (5nM test substance) were 40% and 99.5%, respectively. Further, the inhibition at 0.01 µM turned out to be 71% against EZH1 (10nM test substance) and 100% on EZH2 (10nM test substance). Also, the inhibition at 1 µM in the assay with Lovo cells was no less than 70%; in the assay with G401 cells it was no less than 70%; with MKN-45 cells, no more than 30%; in the assay on SW-13 cells, 30 to 70%; with MIA-PaCa-2 cells, no more than 30%; in the assay on NCI-H1299 cells it was no more than 30%.

In the case of `CSc1cc(C)[nH]c(=O)c1CNC(=O)c1cc(-c2ccc(N3C[C@@H](C)O[C@@H](C)C3)nc2)c2c(c1C)OC(C)(C1CCN(C[C@H](C)O)CC1)O2` (stereo partly drawn) [Compound 40, 7-(6-((2S,6R)-2,6-dimethylmorpholino)pyridin-3-yl)-2-(1-((S)-2-hydroxypropyl)piperidin-4-yl)-2,4-dimethyl-N-((6-methyl-4-(methylthio)-2-oxo-1,2-dihydropyridin-3-yl)methyl)benzo[d][1,3]dioxole-5-carboxamide], the inhibition at 0.005 µM against EZH1 (5nM test substance) was found to be 73.8%; on EZH2 (5nM test substance), 94.6%. Further, the inhibition at 1 µM in the assay on Lovo cells was 30 to 70%; in the assay with G401 cells it was no less than 70%; in the assay on MKN-45 cells, no more than 30%; with SW-13 cells, 30 to 70%; with MIA-PaCa-2 cells, no more than 30%; in the assay on NCI-H1299 cells, 30 to 70%.

As to `CSc1cc(C)[nH]c(=O)c1CNC(=O)c1cc(-c2cnc(N(C)C)nc2)c2c(c1C)OC(C)(C1CCN(CC(F)(F)F)CC1)O2` (stereo not shown) [Compound 35, 7-(2-(dimethylamino)pyrimidin-5-yl)-2,4-dimethyl-N-((6-methyl-4-(methylthio)-2-oxo-1,2-dihydropyridin-3-yl)methyl)-2-(1-(2,2,2-trifluoroethyl)piperidin-4-yl)benzo[d][1,3]dioxole-5-carboxamide], the inhibition at 0.005 µM against EZH1 (5nM test substance) amounted to 67.7%; against EZH2 (5nM test substance) it was 94%. Besides, the inhibition at 1 µM with Lovo cells is no less than 70%; in the assay with G401 cells it was no less than 70%; with MKN-45 cells it was no more than 30%; in the assay on SW-13 cells, no more than 30%; in the assay with MIA-PaCa-2 cells it was no more than 30%; in the assay with NCI-H1299 cells it was no more than 30%.

Turning to `CCN(C)c1ccc(-c2cc(C(=O)NCc3c(SC)cc(C)[nH]c3=O)c(C)c3c2OC(C)(C2CCN(CC(F)(F)F)CC2)O3)cn1` (single isomer, unassigned) [Compound 86, 7-(6-(ethyl(methyl)amino)pyridin-3-yl)-2,4-dimethyl-N-((6-methyl-4-(methylthio)-2-oxo-1,2-dihydropyridin-3-yl)methyl)-2-(1-(2,2,2-trifluoroethyl)piperidin-4-yl)benzo[d][1,3]dioxole-5-carboxamide], the “Enzyme inhibition % EZH1” value on EZH1 (5nM test substance, 0.005 µM) is reported as 42.0%; on EZH1 (10nM test substance, 0.01 µM) it was 65.9%. Besides, the “Enzyme inhibition % EZH2” value worked out at 98.3% on EZH2 (5nM test substance, 0.005 µM) and 99.2% on EZH2 (10nM test substance, 0.01 µM). Further, the “% inhibition rate LoVo” value with Lovo cells is given as “+++ (+++: ≥70%)”. In addition, the “% inhibition rate G401” value in the assay on G401 cells was “+++ (+++: ≥70%)”. For the same compound, in the assay on MKN-45 cells (1 µM), the “% inhibition rate MKN -45” value is “++ (++: more than 30% and less than 70%)”. For the same compound, the “% inhibition rate SW-13” value in the assay with SW-13 cells (1 µM) is recorded as “+ (+: ≤30%)”. In addition, in the assay with MIA-PaCa-2 cells, the “% inhibition rate MIA-Paca2” value was “+ (+: ≤30%)”. Also, the “% inhibition rate NCI-H129 9” value in the assay with NCI-H1299 cells (1 µM) is listed as “+ (+: ≤30%)”.

Regarding `CSc1cc(C)[nH]c(=O)c1CNC(=O)c1cc(-c2ccc(N3C[C@@H](C)O[C@@H](C)C3)nc2)c2c(c1C)OC(C)(C1CCN(CC(F)F)CC1)O2` (single isomer, unassigned) [Compound 47], the results for the inhibition at 0.005 µM on EZH1 (5nM test substance) and against EZH2 (5nM test substance) were 68.1% and 94.5%, respectively. Also, the inhibition at 0.01 µM on EZH1 (10nM test substance) came out at 86.7%; on EZH2 (10nM test substance) it was 99.6%. Also, the inhibition at 1 µM in the assay on Lovo cells is no less than 70%; in the assay with MKN-45 cells, 30 to 70%; in the assay on SW-13 cells it was 30 to 70%; in the assay on MIA-PaCa-2 cells it was no more than 30%; in the assay on NCI-H1299 cells, 30 to 70%. The “% inhibition rate G401” value in the assay with G401 cells is “+++ (+++: ≥70%)”.

With `CSc1cc(C)[nH]c(=O)c1CNC(=O)c1cc(-c2ccc(N3CCOCC3)nc2)c2c(c1C)OC(C)(C1CCN(CC(F)(F)F)CC1)O2` (single isomer, unassigned) [Compound 62, 2,4-dimethyl-N-((6-methyl-4-(methylthio)-2-oxo-1,2-dihydropyridin-3-yl)methyl)-7-(6-morpholinopyridin-3-yl)-2-(1-(2,2,2-trifluoro)piperidin-4-yl)benzo[d][1,3]dioxole-5-carboxamide], the values for the inhibition at 0.005 µM on EZH1 (5nM test substance) and on EZH2 (5nM test substance) were 66.9% and 93.6%, respectively. Further, the inhibition at 0.01 µM is 81.8% against EZH1 (10nM test substance) and 99.4% on EZH2 (10nM test substance). Further, in the assay with Lovo cells (1 µM), the “% inhibition rate LoVo” value was “+++ (+++: ≥70%)”. The “% inhibition rate G401” value with G401 cells is listed as “+++ (+++: ≥70%)”. For the same compound, the inhibition at 1 µM with MKN-45 cells is 30 to 70%; in the assay with SW-13 cells it was 30 to 70%; in the assay on MIA-PaCa-2 cells, no more than 30%; with NCI-H1299 cells, 30 to 70%.

As to `CSc1cc(C)[nH]c(=O)c1CNC(=O)c1cc(-c2cnc(N3CCCCC3)nc2)c2c(c1C)OC(C)([C@H]1CC[C@H](N(C)C)CC1)O2` (relative stereo) [Compound 4, 2-(trans-4-(dimethylamino)cyclohexyl)-2,4-dimethyl-N-((6-methyl-4-(methylthio)-2-oxo-1,2-dihydropyridin-3-yl)methyl)-7-(2-(piperidin-1-yl)pyrimidin-5-yl)benzo[d][1,3]dioxole-5-carboxamide], the inhibition at 0.005 µM on EZH1 (5nM test substance) was 74%; at EZH2 (5nM test substance), 77.4%. For the same compound, the inhibition at 1 µM in the assay with Lovo cells was no less than 70%; with G401 cells, 30 to 70%; in the assay on MKN-45 cells it was no more than 30%; in the assay with SW-13 cells, 30 to 70%; in the assay on MIA-PaCa-2 cells it was no more than 30%; in the assay with NCI-H1299 cells, no more than 30%.
